According to US6737383B1, “Herbicidal oxadiazolidines” (priority 1999, dated 2004):

Assays:
rice = assay: Test B flood test rice; type: in vivo, Oryza sativa
Outline: (§1)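 Each value is a visual injury score relative to controls, with 10 meaning complete control and 0 no effect. Evaluation took place twelve to sixteen days after the 2-leaf-stage plants were treated and kept in the greenhouse.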

bedstraw = assay: Test B pre/postemergence bedstraw; type: in vivo, Galium aparine
Outline: (§2)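 Test chemicals in a non-phytotoxic solvent mixture with surfactant were sprayed preemergence onto planted seeds and postemergence onto plants 2 to 18 cm tall (1- to 4-leaf stage). After twelve to sixteen days in a greenhouse, injury was visually rated against untreated controls from 0 (no effect) to 10 (complete control).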

surinam grass = assay: Test B pre/postemergence surinam grass; type: in vivo, Brachiaria decumbens
Outline: as §2

morningglory = assay: Test B pre/postemergence morningglory; type: in vivo, Ipomoea hederacea
Outline: as §2

purple nutsedge = assay: Test B pre/postemergence purple nutsedge; type: in vivo, Cyperus rotundus
Outline: as §2

rape = assay: Test B pre/postemergence rape; type: in vivo, Brassica napus
Outline: as §2

wild oat = assay: Test B pre/postemergence wild oat; type: in vivo, Avena fatua
Outline: as §2

duck salad = assay: Test B flood test duck salad; type: in vivo, Heteranthera limosa
Outline: as §1

corn = assay: Test B pre/postemergence corn; type: in vivo, Zea mays
Outline: as §2

wheat = assay: Test B pre/postemergence wheat; type: in vivo, Triticum aestivum
Outline: as §2

giant foxtail = assay: Test B pre/postemergence giant foxtail; type: in vivo, Setaria faberii
Outline: as §2

blackgrass = assay: Test B pre/postemergence blackgrass; type: in vivo, Alopecurus myosuroides
Outline: as §2

velvetleaf = assay: Test B pre/postemergence velvetleaf; type: in vivo, Abutilon theophrasti
Outline: as §2

crabgrass = assay: Test B pre/postemergence crabgrass; type: in vivo, Digitaria sanguinalis
Outline: as §2

pigweed = assay: Test B pre/postemergence pigweed; type: in vivo, Amaranthus retroflexus
Outline: as §2

soybean = assay: Test B pre/postemergence soybean; type: in vivo, Glycine max
Outline: as §2

[1] = Postemergence (flood test species), Rate 125 g/ha, scale of 0 to 10 where 0 is no effect and 10 is complete control
[2] = Postemergence, Rate 62 g/ha, scale 0 to 10, 0 is no effect, 10 is complete control
[3] = Rate 500 g/ha, listed under Postemergence (flood test species), scale 0 to 10, 0 no effect, 10 complete control
[4] = Preemergence, Rate 62 g/ha, scale 0 to 10 (0 no effect, 10 complete control)
[5] = Preemergence, Rate 125 g/ha, scale 0 to 10 (0 no effect, 10 complete control)
[6] = Preemergence, Rate 250 g/ha, scale of 0 to 10 where 0 is no effect and 10 is complete control
[7] = Preemergence, Rate 500 g/ha, scale 0 (no effect) to 10 (complete control)
[8] = Postemergence, Rate 250 g/ha, scale 0 to 10, 0 no effect, 10 complete control
[9] = Postemergence, Rate 125 g/ha, scale of 0 to 10 where 0 is no effect and 10 is complete control
[10] = Rate 500 g/ha, Postemergence, scale 0 to 10, 0 no effect, 10 complete control
[11] = Rate 250 g/ha, Postemergence, scale 0 to 10, 0 is no effect, 10 is complete control

With `CC(C)N(C(=O)n1oc(=O)n(-c2cccc3c2CCCC3)c1=O)c1ccc(F)cc1` [Compound 90] the “Rice plant response rating” value (rice; [1]) was 0, the “Rice plant response rating” value (rice; [2]) was 0 and the “Plant response rating, Rice” value (rice; Rate 250 g/ha, Postemergence (flood test), scale 0 to 10, 0 is no effect, 10 is complete control) was 0. The “Rice plant response rating” value (rice; [3]) was 0, the “Bedstraw plant response rating” value (bedstraw; [2]) was 0 and the “Bedstraw plant response rating” value (bedstraw; [4]) was 0. The “Plant response rating, Bedstraw” value (bedstraw; [5]) was 0, the “Plant response rating, Bedstraw” value (bedstraw; [6]) was 0 and the “Bedstraw plant response rating” value (bedstraw; [7]) was 0. For the same compound, the “B. signalgrass plant response rating” value (surinam grass; [2]) was 0, the “B. signalgrass plant response rating” value (surinam grass; [8]) was 0 and the “B. signalgrass plant response rating” value (surinam grass; [4]) was 0. For the same compound, the “Plant response rating, B. signalgrass” value (surinam grass; [5]) was 0, the “B. signalgrass plant response rating” value (surinam grass; [7]) was 3 and the “B. signalgrass plant response rating” value (surinam grass; Rate 125 g/ha, Postemergence, scale 0 to 10, 0 no effect, 10 complete control) was 0. For the same compound, the “B. signalgrass plant response rating” value (surinam grass; Rate 500 g/ha, Postemergence, scale of 0 to 10 where 0 is no effect and 10 is complete control) was 0, the “Morningglory plant response rating” value (morningglory; [2]) was 3 and the “Morningglory plant response rating” value (morningglory; [9]) was 3. The “Morningglory plant response rating” value (morningglory; [8]) was 4, the “Morningglory plant response rating” value (morningglory; [4]) was 0 and the “Plant response rating, Morningglory” value (morningglory; [5]) was 0. The “Plant response rating, Morningglory” value (morningglory; [6]) was 0, the “Morningglory plant response rating” value (morningglory; [7]) was 0 and the “Morningglory plant response rating” value (morningglory; [10]) was 4. The “Nutsedge plant response rating” value (purple nutsedge; [2]) was 0, the “Nutsedge plant response rating” value (purple nutsedge; [9]) was 0 and the “Nutsedge plant response rating” value (purple nutsedge; [8]) was 0. The “Nutsedge plant response rating” value (purple nutsedge; [4]) was 0, the “Plant response rating, Nutsedge” value (purple nutsedge; [5]) was 0 and the “Plant response rating, Nutsedge” value (purple nutsedge; [6]) was 0. For the same compound, the “Nutsedge plant response rating” value (purple nutsedge; [7]) was 0, the “Nutsedge plant response rating” value (purple nutsedge; [10]) was 0 and the “Rape plant response rating” value (rape; [2]) was 0. For the same compound, the “Rape plant response rating” value (rape; [9]) was 0, the “Rape plant response rating” value (rape; [8]) was 0 and the “Rape plant response rating” value (rape; [4]) was 0. The “Plant response rating, Rape” value (rape; [5]) was 0, the “Plant response rating, Rape” value (rape; [6]) was 0 and the “Rape plant response rating” value (rape; [7]) was 0. For the same compound, the “Rape plant response rating” value (rape; [10]) was 0, the “Wild oats plant response rating” value (wild oat; [2]) was 0 and the “Wild oats plant response rating” value (wild oat; [9]) was 0. For the same compound, the “Wild oats plant response rating” value (wild oat; [4]) was 0, the “Plant response rating, Wild oats” value (wild oat; [5]) was 0 and the “Plant response rating, Wild oats” value (wild oat; [6]) was 2. The “Wild oats plant response rating” value (wild oat; [7]) was 3, the “Plant response rating, Wild oats” value (wild oat; [11]) was 0 and the “Wild oats plant response rating” value (wild oat; [10]) was 0. For the same compound, the “Ducksalad plant response rating” value (duck salad; [1]) was 0, the “Ducksalad plant response rating” value (duck salad; [2]) was 0 and the “Ducksalad plant response rating” value (duck salad; [3]) was 0. For the same compound, the “Ducksalad plant response rating” value (duck salad; flood test, listed under Postemergence, Rate 250 g/ha, scale 0 to 10, 0 no effect, 10 complete control) was 0, the “Corn plant response rating” value (corn; [2]) was 0 and the “Corn plant response rating” value (corn; [9]) was 0. For the same compound, the “Corn plant response rating” value (corn; [8]) was 0, the “Corn plant response rating” value (corn; [4]) was 0 and the “Plant response rating, Corn” value (corn; [5]) was 0. For the same compound, the “Plant response rating, Corn” value (corn; [6]) was 0, the “Corn plant response rating” value (corn; [7]) was 0 and the “Corn plant response rating” value (corn; [10]) was 0. The “Wheat plant response rating” value (wheat; [2]) was 0, the “Wheat plant response rating” value (wheat; [9]) was 0 and the “Wheat plant response rating” value (wheat; [4]) was 0. The “Plant response rating, Wheat” value (wheat; [5]) was 0, the “Plant response rating, Wheat” value (wheat; [6]) was 0 and the “Wheat plant response rating” value (wheat; [7]) was 0. The “Plant response rating, Wheat” value (wheat; [11]) was 0, the “Wheat plant response rating” value (wheat; [10]) was 0 and the “Giant foxtail plant response rating” value (giant foxtail; [2]) was 0. The “Giant foxtail plant response rating” value (giant foxtail; [9]) was 0, the “Giant foxtail plant response rating” value (giant foxtail; [8]) was 1 and the “Giant foxtail plant response rating” value (giant foxtail; [4]) was 4. For the same compound, the “Plant response rating, Giant foxtail” value (giant foxtail; [5]) was 8, the “Plant response rating, Giant foxtail” value (giant foxtail; [6]) was 9 and the “Giant foxtail plant response rating” value (giant foxtail; [7]) was 10. The “Giant foxtail plant response rating” value (giant foxtail; [10]) was 1, the “Blackgrass plant response rating” value (blackgrass; [2]) was 0 and the “Blackgrass plant response rating” value (blackgrass; [9]) was 0. The “Blackgrass plant response rating” value (blackgrass; [8]) was 0, the “Blackgrass plant response rating” value (blackgrass; [4]) was 0 and the “Plant response rating, Blackgrass” value (blackgrass; [5]) was 0. The “Plant response rating, Blackgrass” value (blackgrass; [6]) was 3, the “Blackgrass plant response rating” value (blackgrass; [7]) was 6 and the “Blackgrass plant response rating” value (blackgrass; [10]) was 0. The “Velvetleaf plant response rating” value (velvetleaf; [2]) was 0, the “Velvetleaf plant response rating” value (velvetleaf; [9]) was 0 and the “Velvetleaf plant response rating” value (velvetleaf; [4]) was 0. The “Plant response rating, Velvetleaf” value (velvetleaf; [5]) was 0, the “Plant response rating, Velvetleaf” value (velvetleaf; [6]) was 0 and the “Velvetleaf plant response rating” value (velvetleaf; [7]) was 0. For the same compound, the “Plant response rating, Velvetleaf” value (velvetleaf; [11]) was 0, the “Crabgrass plant response rating” value (crabgrass; [2]) was 1 and the “Crabgrass plant response rating” value (crabgrass; [9]) was 2. The “Crabgrass plant response rating” value (crabgrass; [8]) was 2, the “Crabgrass plant response rating” value (crabgrass; [4]) was 0 and the “Plant response rating, Crabgrass” value (crabgrass; [5]) was 2. The “Plant response rating, Crabgrass” value (crabgrass; [6]) was 8, the “Crabgrass plant response rating” value (crabgrass; [7]) was 8 and the “Crabgrass plant response rating” value (crabgrass; [10]) was 4. For the same compound, the “Redroot pigweed plant response rating” value (pigweed; [2]) was 2, the “Redroot pigweed plant response rating” value (pigweed; [9]) was 5 and the “Redroot pigweed plant response rating” value (pigweed; [4]) was 0. For the same compound, the “Plant response rating, Redroot pigweed” value (pigweed; [5]) was 0, the “Plant response rating, Redroot pigweed” value (pigweed; [6]) was 0 and the “Redroot pigweed plant response rating” value (pigweed; [7]) was 6. For the same compound, the “Plant response rating, Redroot pigweed” value (pigweed; [11]) was 6, the “Redroot pigweed plant response rating” value (pigweed; [10]) was 7 and the “Soybean plant response rating” value (soybean; [2]) was 4. The “Soybean plant response rating” value (soybean; [9]) was 4, the “Soybean plant response rating” value (soybean; [4]) was 0 and the “Plant response rating, Soybean” value (soybean; [5]) was 0. For the same compound, the “Plant response rating, Soybean” value (soybean; [6]) was 0, the “Soybean plant response rating” value (soybean; [7]) was 0 and the “Plant response rating, Soybean” value (soybean; [11]) was 4. The “Soybean plant response rating” value (soybean; [10]) was 4.
